Laboratory results reported in patent US6653290B2, “Tumor proliferation inhibitors” (Bristol-Myers Squibb Company, priority 2000, dated 2003).

Assays:
[1] = biological target: T1, purified human topoisomerase I (Homo sapiens, UniProt P11387); assay: Topoisomerase I activity (in vitro): compound-induced, topoisomerase I-mediated single strand breaks in PM2 DNA; format: biochemical; conditions: purified human topoisomerase I (Topogen), 30 minutes at 37° C., read-out: EC50 (median effective concentration for inducing topoisomerase I-mediated single strand breaks in DNA)
T1 construct: purchased Topogen
T1 sequence (P11387 1-765): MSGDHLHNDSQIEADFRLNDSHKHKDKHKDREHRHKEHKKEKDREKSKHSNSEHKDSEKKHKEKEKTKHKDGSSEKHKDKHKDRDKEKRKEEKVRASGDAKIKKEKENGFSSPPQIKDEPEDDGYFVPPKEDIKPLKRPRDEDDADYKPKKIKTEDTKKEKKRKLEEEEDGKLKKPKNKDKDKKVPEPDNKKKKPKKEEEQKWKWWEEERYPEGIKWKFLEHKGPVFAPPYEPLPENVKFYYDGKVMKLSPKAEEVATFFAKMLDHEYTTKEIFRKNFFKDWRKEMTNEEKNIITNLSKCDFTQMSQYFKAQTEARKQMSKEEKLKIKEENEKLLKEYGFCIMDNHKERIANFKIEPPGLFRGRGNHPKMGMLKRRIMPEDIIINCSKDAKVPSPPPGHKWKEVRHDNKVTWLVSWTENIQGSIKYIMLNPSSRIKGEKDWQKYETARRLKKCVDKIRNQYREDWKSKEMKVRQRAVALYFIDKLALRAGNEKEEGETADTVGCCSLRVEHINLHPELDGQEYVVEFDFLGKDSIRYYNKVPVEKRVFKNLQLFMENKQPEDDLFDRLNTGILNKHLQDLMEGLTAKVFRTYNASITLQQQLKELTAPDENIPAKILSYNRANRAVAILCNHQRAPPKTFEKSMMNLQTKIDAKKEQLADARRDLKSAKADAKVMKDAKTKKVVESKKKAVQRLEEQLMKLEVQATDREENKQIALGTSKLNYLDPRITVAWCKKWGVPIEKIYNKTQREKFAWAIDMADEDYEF
Description: Topoisomerase I activity was measured as described below. The procedure for assaying compound-induced, topoisomerase I-mediated single strand breaks in DNA was essentially that described by Hsiang, et al., (J. Biol. Chem. 1985, 260,14873-14878). Samples dissolved in 100% DMSO as either 10 μM or 10 mg/ml solutions, unless otherwise stated, were diluted in Tris-EDTA buffer. Marine bacteriophage PM2 DNA (Boehringer Mannheim) was also diluted in Tris-EDTA buffer to a concentration of 0.02 μg/μl. Different dilutions of compound being evaluated were mixed with diluted DNA and this mixture was added to 1000 unit (one unit of enzyme activity is defined as the amount capable of relaxing 100 ng of supercoiled DNA in approximately 30 minutes at 37° C.) aliquots of purified human topoisomerase I (Topogen) in 2×reaction buffer to start the reaction. The compound—DNA—enzyme mixture was incubated for 30 minutes at 37° C. before stopping the reaction with warm stop buffer containing sodium dodecyl sulfate and proteinase K (Sigma). These mixtures were allowed to incubate at 37° C. for another 10 minutes, at which time the mixtures were removed from the waterbath and extracted with a 24:1 mixture of chloroform/isoamyl alcohol. Following centrifugation, aliquots of the aqueous phases were placed in wells of a 0.9% agarose (SeaKem) gel in Tris-borate buffer containing 0.5 μg/ml of ethidium bromide and subjected to electrophoresis for 15 hours to separate the different topological isomers and nicked and broken DNAs. After destaining the gel in water, the ethidium bromide stained DNA reaction products were visualized by exposing the gel to UV irradiation. Negatives of photographs of the irradiated gels were scanned with a densitometer and areas under the peaks were calculated in order to obtain percent single strand DNA break formation for each sample. A median effective concentration (EC50) was obtained for each compound by interpolation between points of the resulting dose-effect curve which defines the potency of the compound for its effect in inducing topoisomerase I-mediated single strand breaks in DNA. The topoisomerase I activity for selected compounds of the present invention is shown below in Table I.

murine P388 cell line = assay: Cell-based cytotoxicity (XTT proliferation inhibition) against murine P388 cell line; conditions: Mus musculus, P388 cells, 72 h incubation, absorbance at 450 nm, read-out: IC50 (drug concentration required to inhibit cell proliferation to 50% of untreated control cells)
Description: The proliferation inhibition activity against murine P388 cell line was measured as follows. Evaluation of a soluble tetrazolium/formazan assay for cell growth and drug sensitivity in culture, using human and other tumor cell lines, was done according to the procedure described in Cancer Res. 1988, 48, 4827-4833. Cells were plated at 4000 cells/well in 96 well microtiter plates and 24 h later drugs were added and serially diluted. The cells were incubated at 37° C. for 72 h, at which time a tetrazolium dye, XTT, containing phenazine methosulfate was added. A dehydrogenase enzyme in live cells reduced the XTT to a form that absorbs light at 450 nm, which could be quantitated spectrophotometrically. The greater the absorbance the greater the number of live cells. The results are expressed as an IC50, which is the drug concentration required to inhibit cell proliferation (i.e., absorbance at 450 nm) to 50% of that of untreated control cells.

| EC50 [1] [µM] | Structure (SMILES) | IC50 (murine P388 cell line) [µM] |
| --- | --- | --- |
| 0.07 | CO[C@@]1(C)C[C@H](O)[C@@H](O)[C@H](n2c3cc(F)c(F)cc3c3c4c(c5c6cc(F)c(F)cc6[nH]c5c32)C(=O)NC4=O)O1 [Example 6, 2 , 3,9, 10-Tetrafluoro-12-(4,6-dideoxy-5-methoxy-β-D-glucopyranosyl) -6,7, 12, 13-tetrahydro(5H)indolo[2,3-a]pyrrolo[3,4-c]carbazole-5,7-dione] | 0.05 |
| 0.27 | CO[C@]1(CO)O[C@@H](n2c3cc(F)c(F)cc3c3c4c(c5c6cc(F)c(F)cc6[nH]c5c32)C(=O)NC4=O)[C@H](O)[C@@H](O)[C@@H]1O [Example 7, 2,3,9, 10-Tetrafluoro-12-(5-methoxy-β-D-glucopyranosyl)-6,7, 12, 13-tetrahydro(5H)indolo[2,3-a]pyrrolo[3,4-c]carbazole-5,7-dione] | 0.25 |
| 0.05 | CO[C@@]1(CO)C[C@H](O)[C@@H](O)[C@H](n2c3cc(F)c(F)cc3c3c4c(c5c6cc(F)c(F)cc6[nH]c5c32)C(=O)NC4=O)O1 [Example 8, 2,3,9, 10-Tetrafluoro-12-(4-deoxy-5-methoxy-β-D-glucopyranosyl) -6,7, 12, 13-tetrahydro(5H)indolo[2,3-a]pyrrolo[3,4-c]carbazole-5,7-dione] | 0.035 |

Second part, the compound before the results:

| Structure (SMILES) | EC50 [1] [µM] | IC50 (murine P388 cell line) [µM] |
| --- | --- | --- |
| O=C1NC(=O)c2c1c1c3cc(F)c(F)cc3[nH]c1c1c2c2cc(F)c(F)cc2n1[C@@H]1OC(CO)(CO)C[C@H](O)[C@H]1O [Example 1, 2,3,9, 10-Tetrafluoro-12-[5-C-(hydroxymethyl)-4-deoxy-β-D-glucopyranosyl]-indolo[2,3-a]pyrrolo[3,4-c]carbazole-5,7-dione] | 0.04 | 0.035 |
| CO[C@@]1(C)C[C@H](O)[C@@H](O)[C@H](n2c3ccc(F)cc3c3c4c(c5c6cc(F)ccc6[nH]c5c32)C(=O)NC4=O)O1 [Example 9, 3,9-Difluoro-12-(4,6-dideoxy-5-methoxy-β-D-glucopyranosyl)-6,7, 12, 13-tetrahydro(5H)indolo[2,3-a]pyrrolo[3,4-c]carbazole-5,7-dione] | – | 0.007 |
| CCOC1(C)CC(O)C(O)C(n2c3ccc(F)cc3c3c4c(c5c6cc(F)ccc6[nH]c5c32)C(=O)NC4=O)O1 [Example 10, 3,9-Difluoro-12-(4,6-dideoxy-5-ethoxy-6-D-glucopyranosyl)-6,7, 12, 13-tetrahydro(5H)indolo[2,3-a]pyrrolo[3,4-c]carbazole-5,7-dione] | – | 0.055 |
| CC(C)OC1(C)CC(O)C(O)C(n2c3ccc(F)cc3c3c4c(c5c6cc(F)ccc6[nH]c5c32)C(=O)NC4=O)O1 [Example 11, 3,9-Difluoro-12-(4,6-dideoxy-5-isopropoxy-δ-D-glucopyranosyl)-6,7, 12, 13-tetrahydro(5H)indolo[2,3-a]pyrrolo[3,4-c]carbazole-5,7-dione] | – | 0.2 |
| COC1(C)CC(O)C(O)C(n2c3cc(F)c(F)cc3c3c4c(c5c6cc(F)c(F)cc6sc5c32)C(=O)NC4=O)O1 [Example 12, 2,3,9, 10-Tetrafluoro-12-(4,6-dideoxy-5-methoxy-δ-D-glucopyranosyl)-6,7, 12, 13-tetrahydro(5H)benzo[b]thieno[2,3-a]pyrrolo[3,4-c]carbazole-5,7-dione] | – | 0.069 |
